Laboratory results published in US7625917B2, “Thiolesters and uses thereof” (priority 1998, dated 2009).
Entries after “also recorded” stand apart in the source; their conditions may differ.

Tests used:
[1] = molecular target: T1, Virion-associated NCp7 proteins from cell-free HIV-1MN (Human immunodeficiency virus type 1 group M subtype B, UniProt P05888); test: Virion NCp7 cross-linking (non-reducing Western blotting)
T1 construct: attack on the mature NCp7 retroviral zinc fingers in the cell-free virus; endogenous in cells
Experimental: The interaction of zinc finger inhibitors, such as the thiolesters of the invention, with cell-free virus can result in modification of intravirion NCp7 protein and loss of infectivity. Virion-associated NCp7 proteins from cell-free HIV-1MN were treated with thiolester compounds 44 and 45. They were also evaluated by non-reducing Western blotting using HIV-1 NCp7-specific antibodies. […] Cross-linking by compound 45 was due to formation of intermolecular disulfide bonds because reduction with 2-mercaptoethanol (β-ME) completely reversed the gel retardation.
Virion cross linking was performed as described by Rice (1995) Science 270:1194-1197 and Turpin (1997) Antiviral Chem. Chemother. 8:60-67. Briefly, highly purified HIV-1MN (11.8 μg total protein) was incubated for 2 hour with concentrations of compound. Virions were concentrated and residual compound was removed by centrifugation (18,000×g, 1 h, 4° C.). The viral pellet was solubilized in 0.5 M Tris-HCl, (pH 6.8), 50% glycerol, 8% SDS and 0.4% bromophenol blue and proteins resolved by Western blotting. Western blotting to detect the expression of HIV-1 proteins in U1 cells or virus pellets for virion cross-linking experiments was carried out as described by Turpin (1996) J. Virol. 70:6180-6189. Briefly, 50 μg of total cellular protein for U1 experiments or the. total virion pellet (11.8 μg total viral protein) for NCp7 cross linking studies was resolved on 4 to 20% polyacrylamide gels in SDS with Tris-Glycine (Novex, San Diego Calif.). Samples for reduced gels were boiled for 5 min in the presence of 5% β-ME prior to loading. Resolved proteins were electroblotted on to polyvinylidene difluoride (PVDF) membranes, and HIV-1 specific proteins were detected using a mixture of goat anti-HIV-1 NCp7 and p24 or anti-NCp7 for virion proteins alone (a kind gift of L. E. Henderson, AIDS Vaccine Program NCI-FCRDC, Frederick, Md.). Western blots were developed using standard chemiluminescence methodologies, as produced and described by Dupont-NEN, Wilmington, Del.
Purified concentrated retrovirus and antisera against the purified NC protein of the virus can be used to test the ability of a specific compound to penetrate the virus and react with the NC protein by forming disulfide complexes in the core of the virus. Compound are mixed with the whole retrovirus under reaction conditions appropriate for the compound. The virus is then removed from the reagent by centrifugation and disrupted in, e.g., standard SDS-PAGE sample buffer with (reduced) and without (non-reduced) 2-mercaptoethanol. The viral proteins are then separated by standard SDS-PAGE and the sample examined for the presence or absence of the monomeric zinc finger protein in the non-reduced sample. Depending upon the virus used in the experiment and the conditions of electrophoresis, the zinc finger protein can be visualized by protein staining methods, or by immuno-blot methods. Compounds which react with the zinc finger protein by attacking the zinc finger complexes and forming disulfide cross-linked products inactivate the virus. Thus, compounds of interest (i.e., those which cause cross-linking), including the thiolesters of the invention, reduce the amount of monomeric zinc finger protein detected.

NCp7 = NCp7 (Human immunodeficiency virus type 1 group M subtype B, UniProt P03347); test: NCp7 oligonucleotide binding EMSA; assay type: biochemical, HIV-1; settings: for concentration at which NCp7-oligonucleotide complex formation was inhibited: EMSA
Experimental: Zinc finger reactivity was measured using a Zn specific fluorochrome, TSQ, N-(6-methoxy-8-quinolyl)-p-toluenesulfonamide, assay or a Trp37 zinc finger fluorescence assay. Fluorescent measurements of the Trp37 residue in the C-terminal finger of recombinant HIV-1 NCp7 protein were performed as described by Rice (1995) Science 270:1194-1197; Rice (1997) Antimicrob. Agents Chemother. 41:419-426. Measurement of Zn ejection from both fingers was measured using the Zn-selective fluorchrome probe TSQ (Molecular Probes, Eugene Oreg.) as described by Rice (1996) J. Med. Chem 39:3606-3616. Measurement of the ability of NCp7 to bind to a DNA oligomer, a 44 mer: GGCGACTGGTGAGTACGCCAAAAATTTTGACTAGCGGAGGCTAG (SEQ ID NO:1), analogous to the HIV-1 RNA packaging site was carried out as described by Huang (1998) J. Med. Chem. 41:1371-1381, see also, Rossio (1998) HIV Pathogenesis and Treatment: Keystone Symposium on Molecular and Cellular Biology, Abstract # 4082. Briefly, 50 nM NCp7 was treated with test compounds for 1 hour at RT in […] buffer containing 10% glycerol and 50 mM Tris-HCl (pH 7.5). Labeled oligomer (0.1 picomole, end labeled [^32P] was added in an equal volume of buffer containing 10% glycerol, 50 mM Tris-HCl (pH 7.5), 400 mM KCl and 40 mM MgCl2. The reaction was continued for 15 min at room temperature, and a total of […] (or ¼ of the total reaction volume) was separated on nondenaturing 4.5% polyacrylamide gels in 0.5× Tris-Borate electrophoresis buffer. NCp7-oligomer complexes were visualized by autoradiography.
Interaction of zinc finger inhibitors with NCp7 can result in loss of protein structure and their ability to specifically bind oligonucleotides representing the HIV-1ψpackaging site (Huang (1998) supra; Tummino (1997) Antimicrob. Agents Chemother. 41:394-400; South (1993) Protein Sci. 2:3-19; Dannull (1994) EMBO J. 13:1525-1533). The ability of NCp7 to specifically associate with these oligonucleotides after treatment of the protein with a thiolester of the invention was tested. For example, compounds 44, 45 or 47 were very effective at inhibiting Ncp7's ability to associate with target oligonucleotide, as determined using electrophoretic mobility shift assays (EMSA) on nondenaturing polyacrylamide gels. At 1 μM, compound 45 inhibited complex formation. Compounds 44 and 47 inhibited complex formation at 100 μM (see Table 9).

[2] = molecular target: T2, recombinant HIV-1 integrase (Human immunodeficiency virus type 1 group M subtype B, UniProt P03366); test: HIV-1 integrase 3′ processing and strand transfer assay; assay type: biochemical
T2 construct: recombinant HIV-1 integrase; S. Hughes, ABL Basic Research NCI-FCRDC, Frederick Md
Experimental: The 5-bromovaleroyl thioester, compound 44, and two 5-pyridiniovaleroyl thioesters, compounds 45and 47, were analyzed in mechanistic and target-based assays. […] Assays for activity against HIV-1 reverse transcriptase rAdT (template/primer) and rCdG (template/primer) using recombinant HIV-1 reverse transcriptase (S. Hughes, ABL Basic Research NCI-FCRDC, Frederick Md.) were performed as described by Rice (1997) supra. Substrate cleavage of recombinant HIV-1 protease in the presence of test compounds using an HPLC-based methodology with the artificial substrate Ala-Ser-Glu-Asn-Try-Pro-Ile-Val-amide (Multiple Peptide Systems, San Diego Calif.) was performed as described by Rice (1997) supra. The ability of recombinant HIV-1 integrase (S. Hughes, ABL Basic Research NCI-FCRDC, Frederick Md.) to carry out 3′ processing and strand transfer activities in the presence of test compounds was performed as described by Buckheit (1994) AIDS Res. Hum. Retroviruses 10:1497-1506, and Turpin (1998) Antimicrob. Agents Chemother. 42: 487-494.

| Compound | intravirion NCp7 cross-linking (in words) [1] | concentration at which NCp7-oligonucleotide complex formation was inhibited (NCp7) [µM] | inhibition of HIV-1 integrase (in words) [2] | IC50 (NCp7) [µM] | IC50 [2] [µM] |
| --- | --- | --- | --- | --- | --- |
| CC(=O)NS(=O)(=O)c1ccc(NC(=O)c2ccccc2SC(=O)CCCCBr)cc1 [Compound 44, N-[2-(5-bromovaleroylthio)benzoyl]sulfacetamide] | very poor cross-linking agent | 100 | did not inhibit |  |  |
| CC(=O)NS(=O)(=O)c1ccc(NC(=O)c2ccccc2SC(=O)CCCC[n+]2ccccc2)cc1 [Compound 45, N-[2-(5-pyridinio-valeroylthio)benzoyl]sulfacetamide bromide] | extensive cross-linking of NCp7; also recorded: strong cross-linker of intravirion NCp7 | 1 | did not inhibit |  |  |
| O=C(CCCC[n+]1ccccc1)Sc1ccccc1C(=O)Nc1ccc(S(=O)(=O)c2ccc([N+](=O)[O-])cc2)cc1 [Compound 47] | did not effectively initiate NCp7 cross-linking | 100 | did not inhibit | 100 | > 100 |
| O=C(O)CCCC[n+]1ccccc1.[Br-] [Compound 53, 5-pyridiniovaleric acid] | Neither intravirion cross-linkage of NCp7 nor virucidal activity were detected |  |  |  |  |
